{
  "source": "paper PMC12081876",
  "about": "“Identification of PTGR2 inhibitors as a new therapeutic strategy for diabetes and obesity” (EMBO Molecular Medicine, 2025)",
  "key": {"[1]": {"system": "differentiated 3T3-L1 adipocytes", "assay": "Insulin-stimulated glucose uptake assay by (3H)2-deoxyglucose", "type": "cell-based, mouse", "design": "insulin-stimulated glucose uptake, Fig 1J replicates / Figure 5E raw value, insulin-stimulated glucose uptake (replicates): unit not given here", "method": "The cell lines, which were tested for mycoplasma contamination and authenticated, were purchased from the Bioresource Collection and Research Center, Taiwan. All cells were cultured at 37 °C, 5% CO2 in a humidified incubator. HEK293T cells were maintained in DMEM (cat. no. SH30003.02, HyClone) supplemented with 10% fetal bovine serum (FBS) (cat. no. 04-001-1A, Biological Industries) and 1% antibiotic/antimycotic solution (cat. no. SV30079.01, HyClone). 3T3-L1 preadipocytes were maintained at ~70% confluence in DMEM with 10% calf serum (cat. no. 16170078, Gibco) and 1% antibiotic/antimycotic solution. For adipocyte differentiation, confluent 3T3-L1 cells (defined as day 0) were exposed to an induction medium containing 10% FBS, 1 μM dexamethasone (cat. no. D4902, Sigma-Aldrich), and 1 μg/ml insulin (Humulin R, Eli Lilly) in DMEM with or without 0.5 mM isobutyl-methylxanthine (cat. no. sc-201188A, Santa Cruz Biotechnology) as indicated. After two days, the medium was replaced with DMEM containing 10% FBS and 1 μg/ml insulin and was replenished every two days until assay.\nDifferentiated 3T3-L1 cells were starved with serum-free DMEM containing 0.2% BSA (cat. no. A9647, Sigma-Aldrich). Cells were rinsed twice with KRH buffer (137 mM NaCl, 4.7 mM KCl, 1.85 mM CaCl2, 1.3 mM MgSO4, 50 mM HEPES and 0.1% BSA, pH 7.4), and treated with or without […] insulin in the presence of 20 μM cytochalasin B (cat. no. 11328, Cayman Chemical), a GLUT inhibitor for measuring non-specific glucose uptake, for 30 min. Cells were then incubated with 0.5 μCi [^3H]-2-deoxy-D-Glucose (cat. no. NET328A001MC, PerkinElmer) and 0.1 μM 2-deoxy-D-Glucose (2DG) (cat. no. 14325, Cayman Chemical) for 5 min. Uptake of 2DG was terminated by rapidly removing medium and washing with ice-cold PBS three times. Cells were lysed with 0.1% SDS, and the radioactivity was measured using a liquid scintillation counter. Insulin-mediated glucose uptake was calculated by subtracting insulin-treated glucose uptake with basal glucose uptake."}, "[2]": {"system": "HFHSD-fed obese C57BL6/J mice", "assay": "Insulin tolerance test (ITT)", "type": "in vivo, mouse", "design": "Figure 2I Average (glucose, ITT) / ITT / ITT glucose, Average / Blood glucose during insulin tolerance test (Figure 5M), Average: unit not given here", "details": "100 mg/kg/day", "method": "(§1) Glucose tolerance was evaluated by the oral (OGTT) and intraperitoneal glucose tolerance test (ipGTT) after a 6-h fast. For the OGTT, glucose water (1 mg/g) was given by oral gavage, and tail blood glucose was measured with a glucometer (ACCU-CHEK Performa, Roche) at 0, 15, 30, 45, 60, 90, and 120 min. For the ipGTT, tail blood glucose was measured at 0, 15, 30, 45, 60, 90, and 120 min after intraperitoneal injection of glucose water (1 mg/g). For the insulin tolerance test (ITT), mice were fasted for 4 h and then injected intraperitoneally with 1 U/kg of insulin (Humulin R, Eli Lilly). Tail blood glucose was measured at 0, 15, 30, 45, 60, 90, 120, and 180 min."}, "[3]": {"system": "HFHSD-fed obese C57BL6/J mice", "assay": "Intraperitoneal glucose tolerance test (ipGTT)", "type": "in vivo, mouse", "design": "Figure 2H Average (glucose, ipGTT) / ipGTT / ipGTT glucose, Average / Blood glucose during glucose tolerance test (Figure 5L), Average: unit not given here", "details": "100 mg/kg/day", "method": "as §1"}, "[4]": {"system": "HFHSD-fed obese C57BL6/J mice", "assay": "Body weight / diet-induced obesity in HFHSD-fed mice", "type": "in vivo, mouse", "details": "Figure 5J, 100 mg/kg/day, in g (unit assumed)"}},
  "note": "Several values for one entry are separate records, joined by “and”; a condition that tells them apart may be missing. Equal values may be shown once.",
  "data": [
    {"smiles": "CCCCCC(=O)CC[C@H]1[C@H](O)CC(=O)[C@@H]1C/C=C\\CCCC(=O)O", "note": "[13,14-dihydro-15-keto-PGE2]", "values": [
      {"measurement": "insulin-stimulated glucose uptake, Fig 1J replicates", "setting": "[1]; 13,14dh-15kPGE2 5", "result": "2.459 and 1.953 and 1.121 and 1.067"},
      {"measurement": "insulin-stimulated glucose uptake", "setting": "[1]; differentiated 3T3-L1 adipocytes", "result": "showed little effect"}
    ]},
    {"smiles": "Cc1[nH]c2nc(C(C)N3CCN(c4ccccc4)CC3)nn2c(=O)c1Cc1ccc(F)cc1", "note": "(stereo not shown) [BPRPT245]", "values": [
      {"measurement": "Blood glucose during insulin tolerance test (Figure 5M), Average", "setting": "[2]; time 0", "result": 210.867},
      {"measurement": "Blood glucose during insulin tolerance test (Figure 5M), Average", "setting": "[2]; time 15", "result": 143.067},
      {"measurement": "Blood glucose during insulin tolerance test (Figure 5M), Average", "setting": "[2]; time 30", "result": 94.067},
      {"measurement": "Blood glucose during insulin tolerance test (Figure 5M), Average", "setting": "[2]; time 45", "result": 78.667},
      {"measurement": "Blood glucose during insulin tolerance test (Figure 5M), Average", "setting": "[2]; time 60", "result": 69.8},
      {"measurement": "Blood glucose during insulin tolerance test (Figure 5M), Average", "setting": "[2]; time 90", "result": 59.667},
      {"measurement": "Blood glucose during insulin tolerance test (Figure 5M), Average", "setting": "[2]; time 120", "result": 71.467},
      {"measurement": "Blood glucose during insulin tolerance test (Figure 5M), Average", "setting": "[2]; time 180", "result": 90.933},
      {"measurement": "Blood glucose during glucose tolerance test (Figure 5L), Average", "setting": "[3]; time 0", "result": 153.667},
      {"measurement": "Blood glucose during glucose tolerance test (Figure 5L), Average", "setting": "[3]; time 15", "result": 305},
      {"measurement": "Blood glucose during glucose tolerance test (Figure 5L), Average", "setting": "[3]; time 30", "result": 285.933},
      {"measurement": "Blood glucose during glucose tolerance test (Figure 5L), Average", "setting": "[3]; time 45", "result": 242.333},
      {"measurement": "Blood glucose during glucose tolerance test (Figure 5L), Average", "setting": "[3]; time 60", "result": 219.733},
      {"measurement": "Blood glucose during glucose tolerance test (Figure 5L), Average", "setting": "[3]; time 90", "result": 192.133},
      {"measurement": "Blood glucose during glucose tolerance test (Figure 5L), Average", "setting": "[3]; time 120", "result": 185.4},
      {"measurement": "Body weight, Average", "setting": "[4]; week 0", "result": 30.59},
      {"measurement": "Body weight, Average", "setting": "[4]; week 1", "result": 31.2},
      {"measurement": "Body weight, Average", "setting": "[4]; week 2", "result": 31.673},
      {"measurement": "Body weight, Average", "setting": "[4]; week 3", "result": 32.167},
      {"measurement": "Body weight, Average", "setting": "[4]; week 4", "result": 32.92},
      {"measurement": "Body weight, Average", "setting": "[4]; week 5", "result": 32.837},
      {"measurement": "Body weight, Average", "setting": "[4]; week 6", "result": 33.673},
      {"measurement": "Body weight, Average", "setting": "[4]; week 7", "result": 33.323},
      {"measurement": "Body weight, Average", "setting": "[4]; week 8", "result": 33.923},
      {"measurement": "Body weight, Average", "setting": "[4]; week 9", "result": 34.59},
      {"measurement": "Body weight, Average", "setting": "[4]; week 10", "result": 35.623},
      {"measurement": "Body weight, Average", "setting": "[4]; week 11", "result": 36.193},
      {"measurement": "Body weight, Average", "setting": "[4]; week 12", "result": 37.113},
      {"measurement": "Body weight, Average", "setting": "[4]; week 13", "result": 36.957},
      {"measurement": "Body weight, Average", "setting": "[4]; week 14", "result": 38.33},
      {"measurement": "Body weight, Average", "setting": "[4]; week 15", "result": 38.607},
      {"measurement": "Body weight, Average", "setting": "[4]; week 16", "result": 39.303},
      {"measurement": "Body weight, Average", "setting": "[4]; week 17", "result": 40.533},
      {"measurement": "Body weight, Average", "setting": "[4]; week 18", "result": 40.933},
      {"measurement": "Body weight, Average", "setting": "[4]; week 19", "result": 42.11},
      {"measurement": "Body weight, Average", "setting": "[4]; week 20", "result": 41.483},
      {"measurement": "Body weight, Average", "setting": "[4]; week 21", "result": 42.933},
      {"measurement": "Body weight, Average", "setting": "[4]; week 22", "result": 43.33},
      {"measurement": "Body weight, Average", "setting": "[4]; week 23", "result": 44.06},
      {"measurement": "Body weight, Average", "setting": "[4]; week 24", "result": 44.36},
      {"measurement": "Body weight, Average", "setting": "[4]; week 25", "result": 45.28}
    ]}
  ]
}
